According to patent US8735398B2 (Bristol-Myers Squibb Company, priority 2009, dated 2014):
pEC50: −log10 of the molar value. Like-named read-outs stand apart in the source and are kept apart here.

System: HCV 1b genotype
Test: HCV replicon assay (HCV-neo replicon cells, wild-type)
Format: cell-based, Hepatitis C virus
Settings: HCV 1b genotype replicon
How it was run: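 HCV-neo replicon cells (wild-type) and replicon cells carrying NS5A resistance substitutions were treated with compounds; assay per O'Boyle et al. 2005, with luciferase-reporter read-out variants also used.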

[1] = Hepatitis C virus, class symbol, read-out: EC50 Range against HCV 1b
[2] = Hepatitis C virus, class symbols, read-out: EC50 Range against HCV 1b
[3] = Hepatitis C virus, read-out: EC50 1b

SMILES | pEC50 [1] | further results
O=C(Nc1ccc(-c2cnc(-c3ccc(NC(=O)[C@@H]4CCCN4C(=O)c4ccncc4)cc3)o2)cc1)[C@@H]1CCCN1C(=O)c1ccncc1 [JG-10, (2S,2′S)-N,N′-(1,3-oxazole-2,5-diyldi-4,1-phenylene)bis(1-isonicotinoyl-2-pyrrolidinecarboxamide)] | 6.00 to 7.00 | 
C[C@H](NC(=O)OCc1ccccc1)C(=O)Nc1ccc(-c2nc(CC(=O)O)oc2-c2ccc(NC(=O)[C@H](C)NC(=O)OCc3ccccc3)cc2)cc1 [OL-1, 4,5-bis[4-[[(2S)-1-oxo-2-[[(phenylmethoxy)carbonyl]amino]propyl]amino]phenyl]-2-oxazoleacetic acid] | 5.00 to 6.00 | 
Cc1cc(C(=O)N2CCC[C@H]2C(=O)Nc2ccc(-c3cnc(-c4ccc(NC(=O)[C@@H]5CCCN5C(=O)c5cc(C)c(C)o5)cc4)o3)cc2)oc1C [XY-27, (2S,2′S)-N,N′-(1,3-oxazole-2,5-diyldi-4,1-phenylene)bis(1-(4,5-dimethyl-2-furoyl)-2-pyrrolidinecarboxamide)] |  | pEC50 [2]: 6.00 to 7.00
O=C(Nc1cccc(-c2ccc(-c3cccc(NC(=O)[C@@H]4CCCN4C(=O)Cc4ccccc4)c3)s2)c1)[C@@H]1CCCN1C(=O)Cc1ccccc1 [OL-25, (2S,2′S)-N,N′-(2,5-thienediyldi-3,1-phenylene)bis[1-(phenylacetyl)-2-pyrrolidinecarboxamide]] | 7.00 to 8.34 | 
COc1cccc2c(C(=O)N3CCC[C@H]3C(=O)Nc3ccc(-c4cnc(-c5ccc(NC(=O)[C@@H]6CCCN6C(=O)[C@@H](c6ccccc6)N(C)C)cc5)o4)cc3)nc(Cl)cc12 [OL-61, (2S)-1-((3-chloro-5-methoxy-1-isoquinolinyl)carbonyl)-N-(4-(2-(4-((((2S)-1-((2R)-2-(dimethylamino)-2-phenylacetyl)-2-pyrrolidinyl)carbonyl)amino)phenyl)-1,3-oxazol-5-yl)phenyl)-2-pyrrolidinecarboxamide] | 7.00 to 8.34 | 
CC(C(=O)N1CCC[C@H]1C(=O)Nc1ccc(-c2cnc(-c3ccc(NC(=O)[C@@H]4CCCN4C(=O)C(C)N4C(=O)C5C6CCC(C6)C5C4=O)cc3)o2)cc1)N1C(=O)C2C3CCC(C3)C2C1=O (stereo partly drawn) [JR-18, (2S,2′S)-N,N′-(2,5-oxazolediyldi-4,1-phenylene)bis[1-[2-(octahydro-1,3-dioxo-4,7-methano-2H-isoindol-2-yl)-1-oxopropyl]-2-pyrrolidinecarboxamide]] |  | pEC50 [2]: 5.00 to 6.00
CC(=O)O[C@@H](C(=O)N1CCC[C@H]1C(=O)Nc1ccc(-c2ccc(-c3ccc(NC(=O)[C@@H]4CCCN4C(=O)[C@H](OC(C)=O)c4ccccc4)cc3)o2)cc1)c1ccccc1 | > 8.34 | 
CC(C)(C)OC(=O)N1CCCC1(C)C(=O)N1CCC[C@H]1C(=O)Nc1ccc(-c2cnc(-c3ccc(NC(=O)[C@@H]4CCCN4C(=O)C4(C)CCCN4C(=O)OC(C)(C)C)cc3)o2)cc1 (stereo partly drawn) [Example D-29, di-tert-butyl 2,2′-(1,3-oxazole-2,5-diylbis(4,1-phenylenecarbamoyl(2S)-2,1-pyrrolidinediylcarbonyl))bis(2-methyl-1-pyrrolidinecarboxylate)] |  | pEC50 (class symbol, read-out: EC50 Range against HCV 1b): 5.00 to 6.00
O=C(Nc1ccc(-c2nnc(-c3ccc(NC(=O)[C@@H]4CCCN4C(=O)Cc4cccs4)cc3)o2)cc1)[C@@H]1CCCN1C(=O)Cc1cccs1 [Example D-61, (2S,2′S)-N,N′-(4,4′-(1,3,4-oxadiazole-2,5-diyl)bis(4,1-phenylene))bis(1-(2-(thiophen-2-yl)acetyl)pyrrolidine-2-carboxamide)] | 6.00 to 7.00 | pEC50 [3]: 6.49
CC(=O)N1CCC[C@H]1C(=O)Nc1ccc(-c2cc(-c3ccc(NC(=O)[C@@H]4CCCN4C(C)=O)cc3)n(C)n2)cc1 [FY-2, (2S,2′S)-N,N′-((1-methyl-1H-pyrazole-3,5-diyl)di-4,1-phenylene)bis(1-acetyl-2-pyrrolidinecarboxamide)] | 5.00 to 6.00 | 
C[C@H](NC(=O)[C@@H](O)c1ccccc1)C(=O)Nc1ccc(-c2cnc(-c3ccc(NC(=O)[C@H](C)NC(=O)[C@@H](O)c4ccccc4)cc3)o2)cc1 [OL-54, (2S,2′S)-N,N′-(1,3-oxazole-2,5-diyldi-4,1-phenylene)bis(2-(((2S)-2-hydroxy-2-phenylacetyl)amino)propanamide)] | 7.00 to 8.34 | 
CC(C)[C@@H](NC(=O)OCc1ccccc1)C(=O)Nc1ccc(-c2cnc(-c3ccc(NC(=O)[C@H](NC(=O)OCc4ccccc4)C(C)C)cc3)o2)cc1 [JG-5, dibenzyl (1,3-oxazole-2,5-diylbis(4,1-phenyleneimino((2R)-3-methyl-1-oxo-1,2-butanediyl)))biscarbamate] | 5.00 to 6.00 | pEC50 [3]: 5.00
CC(=O)N1CCC[C@H]1C(=O)Nc1ccc(-c2cnc(-c3ccc(NC(=O)[C@@H]4C[C@@H](OC(C)(C)C)CN4C(=O)OCc4ccccc4)cc3)o2)cc1 [MS-2, benzyl (2S,4R)-2-((4-(5-(4-((((2S)-1-acetyl-2-pyrrolidinyl)carbonyl)amino)phenyl)-1,3-oxazol-2-yl)phenyl)carbamoyl)-4-tert-butoxy-1-pyrrolidinecarboxylate] | 6.00 to 7.00 | 
O=C(Nc1ccc(-c2nnc(-c3ccc(NC(=O)[C@@H]4CCCN4C(=O)[C@@H](O)c4ccccc4)cc3)o2)cc1)[C@@H]1CCCN1C(=O)[C@@H](O)c1ccccc1 [RK-17, (2S,2′S)-N,N′-(1,3,4-oxadiazole-2,5-diyldi-4,1-phenylene)bis(1-((2S)-2-hydroxy-2-phenylacetyl)-2-pyrrolidinecarboxamide)] | 6.00 to 7.00 | 
COC(C(=O)N[C@@H](C)C(=O)Nc1ccc(-c2nnc(-c3ccc(NC(=O)[C@H](C)NC(=O)C(OC)c4ccccc4)cc3)o2)cc1)c1ccccc1 (stereo partly drawn) [RK-19, (2S,2′S)-N,N′-(1,3,4-oxadiazole-2,5-diyldi-4,1-phenylene)bis(2-((methoxy(phenyl)acetyl)amino)propanamide)] | 6.00 to 7.00 | 
O=C(Nc1ccc(-c2nnc(-c3ccc(NC(=O)[C@@H]4CCCN4C(=O)c4cccc(Cl)n4)cc3)o2)cc1)[C@@H]1CCCN1C(=O)c1cccc(Cl)n1 [RK-12, (2S,2′S)-N,N′-(1,3,4-oxadiazole-2,5-diyldi-4,1-phenylene)bis(1-((6-chloro-2-pyridinyl)carbonyl)-2-pyrrolidinecarboxamide)] | 5.00 to 6.00 | pEC50 [3]: 5.40
COCC[C@H](NC(=O)Cc1ccccc1)C(=O)Nc1ccc(-c2cnc(-c3ccc(NC(=O)[C@H](CCOC)NC(=O)Cc4ccccc4)cc3)o2)cc1 [JG-15, (2S,2′S)-N,N′-(1,3-oxazole-2,5-diyldi-4,1-phenylene)bis(4-methoxy-2-((phenylacetyl)amino)butanamide)] | 6.00 to 7.00 | 
CCC(=O)N1CCC[C@H]1C(=O)Nc1ccc(-c2cnc(-c3ccc(NC(=O)[C@@H]4CCCN4C(=O)CC)cc3)o2)cc1 [JG-8, (2S,2′S)-N,N′-(1,3-oxazole-2,5-diyldi-4,1-phenylene)bis(1-propionyl-2-pyrrolidinecarboxamide)] | 6.00 to 7.00 | 
O=C(Nc1ccc(-c2ccc(-c3ccc(NC(=O)[C@@H]4CCCN4C(=O)c4nc(Cl)cc5ccccc45)cc3)o2)cc1)[C@@H]1CCCN1C(=O)c1nc(Cl)cc2ccccc12 [JG-61, (2S,2′S)-N,N′-(2,5-furandiyldi-4,1-phenylene)bis(1-((3-chloro-1-isoquinolinyl)carbonyl)-2-pyrrolidinecarboxamide)] | 5.00 to 6.00 | 
O=C(Nc1ccc(-c2cnc(-c3ccc(NC(=O)[C@@H]4CCCN4C(=O)C4CCCO4)cc3)o2)cc1)[C@@H]1CCCN1C(=O)C1CCCO1 (stereo partly drawn) [XY-31, (2S,2′S)-N,N′-(1,3-oxazole-2,5-diyldi-4,1-phenylene)bis(1-(tetrahydro-2-furanylcarbonyl)-2-pyrrolidinecarboxamide)] |  | pEC50 [2]: 7.00 to 8.34; pEC50 [3]: 7.27
CO[C@@H](C(=O)N1CCC[C@H]1C(=O)Nc1ccc(-c2cnc(-c3ccc(NC(=O)[C@@H]4CCCN4C(=O)[C@H](OC)c4ccccc4)cc3)o2)cc1)c1ccccc1 [JG-25, (2S,2′S)-N,N′-(1,3-oxazole-2,5-diyldi-4,1-phenylene)bis(1-((2R)-2-methoxy-2-phenylacetyl)-2-pyrrolidinecarboxamide)] | 7.00 to 8.34 | 
C[C@H](NC(=O)[C@H]1CCCO1)C(=O)Nc1ccc(-c2nnc(-c3ccc(NC(=O)[C@H](C)NC(=O)[C@H]4CCCO4)cc3)o2)cc1 [RK-35, (2R,2′R)-N,N′-(1,3,4-oxadiazole-2,5-diylbis(4,1-phenyleneimino((2S)-1-oxo-1,2-propanediyl)))ditetrahydro-2-furancarboxamide] |  | pEC50 (class symbols, read-out: EC50 Range against HCV 1b): 5.00 to 6.00
O=C(Nc1ccc(-c2nc[nH]c2-c2ccc(NC(=O)[C@@H]3CCCN3C(=O)[C@@H](O)c3ccccc3)cc2)cc1)[C@@H]1CCCN1C(=O)[C@@H](O)c1ccccc1 [JG-44, (2S,2′S)-N,N′-(1H-imidazole-4,5-diyldi-4,1-phenylene)bis(1-((2S)-2-hydroxy-2-phenylacetyl)-2-pyrrolidinecarboxamide)] | 6.00 to 7.00 | 
O=C(Nc1ccc(-c2cnc(-c3ccc(NC(=O)[C@@H]4CCCN4C(=O)[C@H]4CCCO4)cc3)o2)cc1)[C@@H]1CCCN1C(=O)[C@H]1CCCO1 [XY-32, (2S,2′S)-N,N′-(1,3-oxazole-2,5-diyldi-4,1-phenylene)bis(1-((2R)-tetrahydro-2-furanylcarbonyl)-2-pyrrolidinecarboxamide)] |  | pEC50 [2]: 7.00 to 8.34
O=C(Nc1ccc(-c2nnc(-c3ccc(NC(=O)C4CCCN4C(=O)Cc4ccccc4)cc3)o2)cc1)C1CCCN1C(=O)Cc1ccccc1 (centres unmarked) [RK-3, N,N′-(1,3,4-oxadiazole-2,5-diyldi-4,1-phenylene)bis(1-(phenylacetyl)-2-pyrrolidinecarboxamide)] | 6.00 to 7.00 | 
Cc1noc(C)c1C(=O)N1C[C@H](O)C[C@H]1C(=O)Nc1ccc(-c2cnc(-c3ccc(NC(=O)[C@@H]4C[C@@H](O)CN4C(=O)c4c(C)noc4C)cc3)o2)cc1 [XY-53, (2S,4R,2′S,4′R)-N,N′-(1,3-oxazole-2,5-diyldi-4,1-phenylene)bis(1-((3,5-dimethyl-4-isoxazolyl)carbonyl)-4-hydroxy-2-pyrrolidinecarboxamide)] |  | pEC50 [2]: 5.00 to 6.00; pEC50 [3]: 5.09
O=C(Nc1ccc(-c2nc[nH]c2-c2ccc(NC(=O)[C@@H]3CCCN3C(=O)Cc3ccccc3)cc2)cc1)[C@@H]1CCCN1C(=O)Cc1ccccc1 [OL-10, (2S,2′S)-N,N′-(1H-imidazole-4,5-diyldi-4,1-phenylene)bis(1-(phenylacetyl)-2-pyrrolidinecarboxamide)] | 7.00 to 8.34 | 
